In patent publication US20260297083A1, “SUBSTITUTED ACETYLENE COMPOUND DERIVATIVES AND THEIR PHARMACEUTICAL USE” (AVELOS THERAPEUTICS INC., priority 2023, published 2026):

Each compound was assayed on DLD-1 BRCA2(−/−) Cell (assay: Cell viability assay (Resazurin) in DLD1-BRCA2 cells). Details: 14 days, 1,500 cells/well, final DMSO 1%.
Type: cell-based
How it was run: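 DLD1-BRCA2 KG cells seeded at 1,500/well (parental 600/well) in RPMI-1640 with 10% FBS, compound added after 4 h (1% DMSO), media replaced every 3-4 days over 14 days at 37° C. Viability read by resazurin (0.1 mg/ml, 4 h) fluorescence at Ex/Em 560/590 nm; IC50 fitted.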

IC50 [µM] | Compound
1.1 to 5 | (S)-N-(3-(6-aminopyridazin-3-yl)prop-2-yn-1- yl)-2-(6-methyl-4-(trifluoromethyl)pyridin-2- yl)-N-(m-tolyl)isothiazolidine-3-carboxamide 1,1-dioxide [Example 19]

Same assay, conditions: Homo sapiens, DLD-1, 336 h, 14 days, 1,500 cells/well, final DMSO 1%

IC50 [µM] | Compound
< 1 | Cc1cc(C(F)(F)F)cc(N2[C@H](C(=O)N(CC#Cc3ccc(C(N)=O)cn3)c3ccc(F)c(C)c3)CCS2(=O)=O)n1 [Example 97, (S)-N-(3-(5-carbamoylpyridin-2-yl)prop-2-yn-1-yl)-N-(4-fluoro-3-methylphenyl)-2-(6-methyl-4-(trifluoromethyl)pyridin-2-yl)isothiazolidine-3-carboxamide 1,1-dioxide]
< 1 | Cc1cc(C(F)(F)F)cc(N2[C@H](C(=O)N(CC#Cc3cnc4c(c3)CN(C)C4=O)c3ccc(F)c(C)c3)CCS2(=O)=O)n1 [Example 98, (S)-N-(4-fluoro-3-methylphenyl)-2-(6-methyl-4-(trifluoromethyl)pyridin-2-yl)-N-(3-(6-methyl-7-oxo-6,7-dihydro-5H-pyrrolo[3,4-b]pyridin-3-yl)prop-2-yn-1-yl)isothiazolidine-3-carboxamide 1,1-dioxide]
1.1 to 5 | Cc1cc(C(F)(F)F)cc(N2[C@H](C(=O)N(CC#Cc3cnc4c(c3)C(C)(C)N(C)C4=O)c3ccc(F)c(C)c3)CCS2(=O)=O)n1 [Example 99, (S)-N-(4-fluoro-3-methylphenyl)-2-(6-methyl-4-(trifluoromethyl)pyridin-2-yl)-N-(3-(5,5,6-trimethyl-7-oxo-6.7-dihydro-5H-pyrrolo[3,4-b]pyridin-3-yl)prop-2-yn-1-yl)isothiazolidine-3-carboxamide 1,1-dioxide]
> 5.1 | Cc1cc(C(F)(F)F)cc(N2[C@H](C(=O)N(CC#Cc3cnc4c(c3)C(=O)N(C)C4=O)c3ccc(F)c(C)c3)CCS2(=O)=O)n1 [Example 100, (S)-N-(4-fluoro-3-methylphenyl)-2-(6-methyl-4-(trifluoromethyl)pyridin-2-yl)-N-(3-(6-methyl-5,7-dioxo-6,7-dihydro-5H-pyrrolo[3,4-b]pyridin-3-yl)prop-2-yn-1-yl)isothiazolidine-3-carboxamide 1,1-dioxide]
1.1 to 5 | Cc1cc(C(F)(F)F)cc(N2[C@H](C(=O)N(CC#Cc3n[nH]c(=O)c4ccccc34)c3ccc(F)c(C)c3)CCS2(=O)=O)n1 [Example 101, (S)-N-(4-fluoro-3-methylphenyl)-2-(6-methyl-4-(trifluoromethyl)pyridin-2-yl)-N-(3-(4-oxo-3,4-dihydrophthalazin-1-yl)prop-2-yn-1-yl)isothiazolidine-3-carboxamide 1,1-dioxide]
1.1 to 5 | Cc1cc(C(F)(F)F)cc(N2[C@H](C(=O)N(CC#Cc3cncn3C)c3ccc(F)c(C)c3)CCS2(=O)=O)n1 [Example 102, (S)-N-(4-fluoro-3-methylphenyl)-N-(3-(1-methyl-1H-imidazol-5-yl)prop-2-yn-1-yl)-2-(6-methyl-4-(trifluoromethyl)pyridin-2-yl)isothiazolidine-3-carboxamide 1,1-dioxide]
< 1 | Cc1cc(C(F)(F)F)cc(N2[C@H](C(=O)N(CC#Cc3ncnc(N4CCOCC4)n3)c3ccc(F)c(C)c3)CCS2(=O)=O)n1 [Example 103, (S)-N-(4-fluoro-3-methylphenyl)-2-(6-methyl-4-(trifluoromethyl)pyridin-2-yl)-N-(3-(4-morpholino-1,3,5-triazin-2-yl)prop-2-yn-1-yl)isothiazolidine-3-carboxamide 1,1-dioxide]
< 1 | Cc1cc(C(F)(F)F)cc(N2[C@H](C(=O)N(CC#Cc3nc(C(N)=O)co3)c3ccc(F)c(C)c3)CCS2(=O)=O)n1 [Example 104, (S)-2-(3-(N-(4-fluoro-3-methylphenyl)-2-(6-methyl-4-(trifluoromethyl)pyridin-2-yl)-1,1-dioxidoisothiazolidine-3-carboxamido)prop-1-yn-1-yl)oxazole-4-carboxamide]
1.1 to 5 | Cc1cc(C(F)(F)F)cc(N2[C@H](C(=O)N(CC#Cc3ccc(C(N)=O)cc3)c3ccc(F)c(C)c3)CCS2(=O)=O)n1 [Example 105, (S)-N-(3-(4-carbamoylphenyl)prop-2-yn-1-yl)-N-(4-fluoro-3-methylphenyl)-2-(6-methyl-4-(trifluoromethyl)pyridin-2-yl)isothiazolidine-3-carboxamide 1,1-dioxide]
1.1 to 5 | Cc1cc(C(F)(F)F)cc(N2[C@H](C(=O)N(CC#Cc3cccc(C(N)=O)c3)c3ccc(F)c(C)c3)CCS2(=O)=O)n1 [Example 106, (S)-N-(3-(3-carbamoylphenyl)prop-2-yn-1-yl)-N-(4-fluoro-3-methylphenyl)-2-(6-methyl-4-(trifluoromethyl)pyridin-2-yl)isothiazolidine-3-carboxamide 1,1-dioxide]
1.1 to 5 | Cc1cccc(N(CC#Cc2ccc(N)nn2)C(=O)[C@@H]2CN(C)S(=O)(=O)N2c2cc(C(F)(F)F)cc(C)n2)c1 [Example 107, (3S)-N-[3-(6-aminopyridazin-3-yl)prop-2-ynyl]-5-methyl-2-[6-methyl-4-(trifluoromethyl)-2-pyridyl]-N-(m-tolyl)-1,1-dioxo-1,2,5-thiadiazolidine-3-carboxamide]
1.1 to 5 | Cc1cccc(N(CC#Cc2cnc(N)cn2)C(=O)[C@@H]2CN(C)S(=O)(=O)N2c2cc(C(F)(F)F)cc(C)n2)c1 [Example 108, (S)-N-(3-(5-aminopyrazin-2-yl)prop-2-yn-1-yl)-5-methyl-2-(6-methyl-4-(trifluoromethyl)pyridin-2-yl)-N-(m-tolyl)-1,2,5-thiadiazolidine-3-carboxamide 1,1-dioxide]
1.1 to 5 | Cc1cc(C(F)(F)F)cc(N2[C@H](C(=O)N(CC#Cc3ccc(N)nn3)c3ccc(F)c(C)c3)CN(C)S2(=O)=O)n1 [Example 109, (S)-N-(3-(6-aminopyridazin-3-yl)prop-2-yn-1-yl)-N-(4-fluoro-3-methylphenyl)-5-methyl-2-(6-methyl-4-(trifluoromethyl)pyridin-2-yl)-1,2,5-thiadiazolidine-3-carboxamide 1,1-dioxide]
1.1 to 5 | Cc1cc(C(F)(F)F)cc(N2[C@H](C(=O)N(CC#Cc3ccc(N)nn3)c3ccc(F)c(C)c3)CN(C(C)C)S2(=O)=O)n1 [Example 110, (S)-N-(3-(6-aminopyridazin-3-yl)prop-2-yn-1-yl)-N-(4-fluoro-3-methylphenyl)-5-isopropyl-2-(6-methyl-4-(trifluoromethyl)pyridin-2-yl)-1,2,5-thiadiazolidine-3-carboxamide 1,1-dioxide]
< 1 | Cc1cc(C(F)(F)F)cc(N2[C@H](C(=O)N(CC#Cc3ccc(C(=O)N(C)C)nc3)c3ccc(F)c(C)c3)CCS2(=O)=O)n1 [Example 111, (S)-N-(3-(6-(dimethylcarbamoyl)pyridin-3-yl)prop-2-yn-1-yl)-N-(4-fluoro-3-methylphenyl)-2-(6-methyl-4-(trifluoromethyl)pyridin-2-yl)isothiazolidine-3-carboxamide 1,1-dioxide]
< 1 | Cc1cc(C(F)(F)F)cc(N2[C@H](C(=O)N(CC#Cc3ccc(C#N)nc3)c3ccc(F)c(C)c3)CCS2(=O)=O)n1 [Example 115, (S)-N-(3-(6-cyanopyridin-3-yl)prop-2-yn-1-yl)-N-(4-fluoro-3-methylphenyl)-2-(6-methyl-4-(trifluoromethyl)pyridin-2-yl)isothiazolidine-3-carboxamide 1,1-dioxide]
< 1 | Cc1cc(C(F)(F)F)cc(N2[C@H](C(=O)N(CC#Cc3ccc(-c4ncon4)nc3)c3ccc(F)c(C)c3)CCS2(=O)=O)n1 [Example 116, (S)-N-(3-(6-(1,2,4-oxadiazol-3-yl)pyridin-3-vl)prop-2-yn-1-yl)-N-(4-fluoro-3-methylphenyl)-2-(6-methyl-4-(trifluoromethyl)pyridin-2-yl)isothiazolidine-3-carboxamide 1,1-dioxide]
< 1 | Cc1cc(C(F)(F)F)cc(N2[C@H](C(=O)N(CC#Cc3ccc(C(N)=O)nc3C)c3ccc(F)c(C)c3)CCS2(=O)=O)n1 [Example 117, (S)-N-(3-(6-carbamoyl-2-methylpyridin-3-yl)prop-2-yn-1-yl)-N-(4-fluoro-3-methylphenyl)-2-(6-methyl-4-(trifluoromethyl)pyridin-2-yl)isothiazolidine-3-carboxamide 1,1-dioxide]
